The assay has as its target Neuropilin-1 (Homo sapiens) (UniProt O14786). The experiment in a line: blockers of CendR peptide binding to NRP-1 – biochemical, FP and AlphaScreen panel, dose response (AID 651650). The note with it: NRP-1 b1b2 / RPARPAR peptide binding, FP or AlphaScreen.
Setting [1] is: AlphaScreen, run 1, individual panel run IC50.
[2] abbreviates: FP, run 1, individual panel run IC50.
The mark [3] stands for this setting: FP, run 2, individual panel run IC50.

The source made the active and inactive calls.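 Rule for the calls: active = mean IC50 below 20 µM in each of the two panels, so potent in both; inactive = the rest.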

Sequence of Neuropilin-1 (Homo sapiens) (O14786 whole entry, looked up): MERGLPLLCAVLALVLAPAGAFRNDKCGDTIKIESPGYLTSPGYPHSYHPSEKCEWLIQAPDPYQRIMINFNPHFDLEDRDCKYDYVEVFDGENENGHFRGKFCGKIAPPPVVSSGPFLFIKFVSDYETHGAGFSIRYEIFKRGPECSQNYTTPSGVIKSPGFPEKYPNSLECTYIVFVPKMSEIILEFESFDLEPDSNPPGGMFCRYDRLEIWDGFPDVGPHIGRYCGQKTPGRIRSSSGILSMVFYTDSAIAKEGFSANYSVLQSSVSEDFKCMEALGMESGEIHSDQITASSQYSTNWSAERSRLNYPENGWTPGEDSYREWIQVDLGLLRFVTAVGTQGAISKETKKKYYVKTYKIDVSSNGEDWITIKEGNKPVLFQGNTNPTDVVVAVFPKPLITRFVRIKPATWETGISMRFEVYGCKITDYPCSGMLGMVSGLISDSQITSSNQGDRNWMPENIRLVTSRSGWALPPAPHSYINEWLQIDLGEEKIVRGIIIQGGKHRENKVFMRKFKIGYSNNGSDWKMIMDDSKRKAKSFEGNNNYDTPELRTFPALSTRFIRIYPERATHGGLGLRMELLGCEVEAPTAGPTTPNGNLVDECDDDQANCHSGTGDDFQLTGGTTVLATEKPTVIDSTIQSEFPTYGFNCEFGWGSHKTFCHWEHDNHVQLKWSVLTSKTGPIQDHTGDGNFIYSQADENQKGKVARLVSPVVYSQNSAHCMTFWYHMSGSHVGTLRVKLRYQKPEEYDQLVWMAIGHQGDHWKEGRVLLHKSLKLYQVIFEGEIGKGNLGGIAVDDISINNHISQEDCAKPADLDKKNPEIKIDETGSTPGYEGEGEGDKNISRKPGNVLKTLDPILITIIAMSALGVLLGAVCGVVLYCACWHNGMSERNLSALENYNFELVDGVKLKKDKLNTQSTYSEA

For the compound `COc1cc(Cn2nnc3ccccc32)cc(Br)c1O`, the IC50 runs as follows: (AlphaScreen, mean of runs) > 100 µM (inactive); under setting [1], greater than 100 µM; (FP, mean of runs) > 95 µM (inactive); under setting [2], greater than 95 µM; under setting [3], greater than 95 µM.

Turning to `COc1cccc(NC(=O)CSc2nc(O)c(C)c(=O)n2-c2ccc(C)cc2)c1`, the IC50 was > 100 µM (inactive) (AlphaScreen, mean of runs); greater than 100 µM under setting [1]; 20.1 µM under setting [2]; greater than 95 µM under setting [3]. In addition, the IC50 result (FP, mean of runs) is “inactive”.

As for `O=c1ccsn1Cc1ccccc1`, the IC50 runs as follows: (AlphaScreen, mean of runs) > 100 µM (inactive); under setting [1], greater than 100 µM; (FP, mean of runs) > 95 µM (inactive); under setting [2], greater than 95 µM; under setting [3], greater than 95 µM.

Consider `COc1ccc(/C=N/NC(=O)c2nn(-c3ccc(Cl)cc3)c(=O)c3c(N)scc23)cc1`, for which the IC50 (AlphaScreen, mean of runs) was > 100 µM (inactive); the IC50 under setting [1] is greater than 100 µM; the IC50 (FP, mean of runs) is > 95 µM (inactive); the half-inhibitory concentration (IC50) under setting [2] was greater than 95 µM; the IC50 under setting [3] was greater than 95 µM.

In the case of `N/C(CSc1ccc(Cl)cc1)=N\S(=O)(=O)c1ccc(Cl)cc1`, the IC50 (AlphaScreen, mean of runs) is > 100 µM (inactive); the IC50 under setting [1] is greater than 100 µM; the IC50 (FP, mean of runs) is > 95 µM (inactive); the 50% inhibitory concentration (IC50) under setting [2] was greater than 95 µM; the IC50 under setting [3] is greater than 95 µM.

As to `CCCc1c(O)c2ccccc2[nH]c1=O`, the IC50 is > 100 µM (inactive) (AlphaScreen, mean of runs); greater than 100 µM under setting [1]; > 95 µM (inactive) (FP, mean of runs); greater than 95 µM under setting [2]; greater than 95 µM under setting [3].

With `C=C1CCN(C(C(=O)OC)C(C)C)S(=O)(=O)c2ccc(F)cc21` (stereo not given), the IC50 reads like this: (AlphaScreen, mean of runs) > 100 µM (inactive); under setting [1], greater than 100 µM; (FP, mean of runs) > 95 µM (inactive); under setting [2], greater than 95 µM; under setting [3], greater than 95 µM.

Turning to `O=[N+]([O-])c1ccc(-n2nnnc2CN2CCCCC2)cc1`, the IC50 runs as follows: (AlphaScreen, mean of runs) > 100 µM (inactive); under setting [1], greater than 100 µM; (FP, mean of runs) > 95 µM (inactive); under setting [2], greater than 95 µM; under setting [3], greater than 95 µM.

With `CCOC(=O)C1(Cc2cccc(F)c2)CCN(Cc2ccon2)CC1`, the half-inhibitory concentration (IC50) (AlphaScreen, mean of runs) is 9.02 µM; the concentration for half-maximal inhibition (IC50) under setting [1] was 9.02 µM; the IC50 (FP, mean of runs) was > 95 µM (inactive); the concentration for half-maximal inhibition (IC50) under setting [2] was greater than 95 µM; the IC50 under setting [3] is greater than 95 µM.

Take `OCC[C@H]1C[C@H](O)[C@@H](O)[C@]2(CCCCO2)O1`: the IC50 runs as follows: (AlphaScreen, mean of runs) > 100 µM (inactive); under setting [1], greater than 100 µM; (FP, mean of runs) > 95 µM (inactive); under setting [2], greater than 95 µM; under setting [3], greater than 95 µM.

On to `COC/C=C/C1=CC2=CC(=O)C(C)(OC(=O)c3cnc4ccccc4n3)C(=O)C2=CN1Cc1ccc(OC)cc1` (stereo not given), for which the IC50 entry (AlphaScreen, mean of runs) was “inactive”. The IC50 by setting is: under setting [1], 46.4 µM; (FP, mean of runs) > 95 µM (inactive); under setting [2], greater than 95 µM; under setting [3], greater than 95 µM.

With `FC(F)(F)c1cc(C(F)(F)F)c2ccc(Oc3ccccc3)nc2n1`, the IC50 (AlphaScreen, mean of runs) was > 100 µM (inactive); the IC50 under setting [1] was greater than 100 µM; the IC50 (FP, mean of runs) is > 95 µM (inactive); the IC50 under setting [2] was greater than 95 µM; the IC50 under setting [3] was greater than 95 µM.

For `CCCS(=O)(=O)N1CCC(C(=O)NC2CCCC(C)C2C)CC1` (stereo not given), the IC50 is 17.5 µM (AlphaScreen, mean of runs); 17.5 µM under setting [1]; > 95 µM (inactive) (FP, mean of runs); greater than 95 µM under setting [2]; greater than 95 µM under setting [3].

In the case of `Cc1cn([C@H]2C[C@H](O)[C@@H](CCC(=O)NCCc3ccc4ccccc4c3)O2)c(=O)[nH]c1=O`, the IC50 reads like this: (AlphaScreen, mean of runs) > 100 µM (inactive); under setting [1], greater than 100 µM; (FP, mean of runs) > 95 µM (inactive); under setting [2], greater than 95 µM; under setting [3], greater than 95 µM.

As to `CCOC(=O)C1CCN(Cc2ccc3ccccc3c2)CC1`, the IC50 runs as follows: (AlphaScreen, mean of runs) > 100 µM (inactive); under setting [1], greater than 100 µM; (FP, mean of runs) > 95 µM (inactive); under setting [2], greater than 95 µM; under setting [3], greater than 95 µM.

Take `O=C(NCc1ccccc1)C(c1cccnc1)N(C(=O)c1ccccn1)c1ccccc1F` (stereo not given): the IC50 was > 100 µM (inactive) (AlphaScreen, mean of runs); greater than 100 µM under setting [1]; > 95 µM (inactive) (FP, mean of runs); greater than 95 µM under setting [2]; greater than 95 µM under setting [3].

In the case of `Cc1ccc(COn2c(-c3ccc(Cl)cc3Cl)nc3ncccc32)cc1`, the IC50 (AlphaScreen, mean of runs) was > 100 µM (inactive); the IC50 under setting [1] is greater than 100 µM; the IC50 (FP, mean of runs) was > 95 µM (inactive); the IC50 under setting [2] is greater than 95 µM; the IC50 under setting [3] is greater than 95 µM.

In the case of `CC(=O)Nc1ccc(NC(=O)C2CC(=O)N(c3ccc(Cl)cc3)C2)cc1` (stereo not given), the half-inhibitory concentration (IC50) is, setting by setting: (AlphaScreen, mean of runs) 17.9 µM; under setting [1], 17.9 µM; (FP, mean of runs) > 95 µM (inactive); under setting [2], greater than 95 µM; under setting [3], greater than 95 µM.

On to `COCc1cccc(-c2csc(C(C)(O)c3ccccc3)n2)c1` (stereo not given), for which the IC50 is > 100 µM (inactive) (AlphaScreen, mean of runs); greater than 100 µM under setting [1]; > 95 µM (inactive) (FP, mean of runs); greater than 95 µM under setting [2]; greater than 95 µM under setting [3].

Take `O=C(NCCCN1CCCC(O)C1)c1cc(COc2ccc(F)cc2F)on1` (stereo not given): the IC50 runs as follows: (AlphaScreen, mean of runs) > 100 µM (inactive); under setting [1], greater than 100 µM; (FP, mean of runs) > 95 µM (inactive); under setting [2], greater than 95 µM; under setting [3], greater than 95 µM.

Turning to `Cc1ccccc1S(=O)(=O)Nc1nc2ccccc2nc1NCCO`, the IC50 (AlphaScreen, mean of runs) is > 100 µM (inactive); the IC50 under setting [1] was greater than 100 µM; the IC50 (FP, mean of runs) is > 95 µM (inactive); the IC50 under setting [2] is greater than 95 µM; the half-inhibitory concentration (IC50) under setting [3] was greater than 95 µM.

Regarding `O=C(c1ccccn1)N1CCN(S(=O)(=O)c2ccccc2)CC1`, for the setting “AlphaScreen, mean of runs”, the IC50 result is “inactive”. Further, the 50% inhibitory concentration (IC50) was 27.8 µM under setting [1]; > 95 µM (inactive) (FP, mean of runs); greater than 95 µM under setting [2]; greater than 95 µM under setting [3].

Consider `CNc1nc(-c2ccc3c(c2)CCN3C(=O)c2ccccc2F)cs1`, for which the IC50 (AlphaScreen, mean of runs) was > 100 µM (inactive); the IC50 under setting [1] is greater than 100 µM; the IC50 (FP, mean of runs) was > 95 µM (inactive); the IC50 under setting [2] is greater than 95 µM; the 50% inhibitory concentration (IC50) under setting [3] is greater than 95 µM.

Regarding `CSc1nc2ccccc2c(=O)n1C1CCOC(C)(C)C1` (stereo not given), the IC50 (AlphaScreen, mean of runs) is > 100 µM (inactive); the IC50 under setting [1] is greater than 100 µM; the IC50 (FP, mean of runs) is > 95 µM (inactive); the IC50 under setting [2] was greater than 95 µM; the IC50 under setting [3] is greater than 95 µM.

Turning to `CCC1CCCCN1CCCNC(=O)C1CCCN(S(=O)(=O)N2CC(C)CC(C)C2)C1` (stereo not given), the IC50 is 6.29 µM (AlphaScreen, mean of runs); 6.29 µM under setting [1]; > 95 µM (inactive) (FP, mean of runs); greater than 95 µM under setting [2]; greater than 95 µM under setting [3].

`COc1ccc(N=C2C(=Nc3ccc(OC)cc3)N(c3ccc(N(C)C)cc3)C(=S)N2c2ccc(OC)cc2)cc1`: the IC50 is, setting by setting: (AlphaScreen, mean of runs) > 100 µM (inactive); under setting [1], greater than 100 µM; (FP, mean of runs) > 95 µM (inactive); under setting [2], greater than 95 µM; under setting [3], greater than 95 µM.

`O=C(NCCCN1CCOCC1)c1ccc2c(=O)n(-c3ccc(F)c(Cl)c3)c(=S)[nH]c2c1`: the IC50 by setting is: (AlphaScreen, mean of runs) > 100 µM (inactive); under setting [1], greater than 100 µM; (FP, mean of runs) > 95 µM (inactive); under setting [2], greater than 95 µM; under setting [3], greater than 95 µM.

On to `CCOCCCNC(=O)C(c1ccc(C)cc1)N(Cc1cccs1)C(=O)c1ccccc1O` (stereo not given), for which the IC50 (AlphaScreen, mean of runs) is > 100 µM (inactive); the IC50 under setting [1] was greater than 100 µM; the IC50 (FP, mean of runs) was > 95 µM (inactive); the IC50 under setting [2] is greater than 95 µM; the half-inhibitory concentration (IC50) under setting [3] is greater than 95 µM.

`COc1ccc(C(CNc2ccc(S(=O)(=O)N3CCCC3)cc2[N+](=O)[O-])N2CCCC2)cc1` (stereo not given): the 50% inhibitory concentration (IC50) reads like this: (AlphaScreen, mean of runs) 12.2 µM; under setting [1], 12.2 µM; (FP, mean of runs) > 95 µM (inactive); under setting [2], greater than 95 µM; under setting [3], greater than 95 µM.

In the case of `Cc1cc2cc(CNC(=O)c3ccc(S(=O)(=O)N4CCOCC4)cc3)ccc2n1C`, the IC50 runs as follows: (AlphaScreen, mean of runs) > 100 µM (inactive); under setting [1], greater than 100 µM; (FP, mean of runs) > 95 µM (inactive); under setting [2], greater than 95 µM; under setting [3], greater than 95 µM.

For `CC(C)(C)n1cnc2cc(NC(=O)c3ccccc3)ccc21`, the half-maximal inhibitory concentration (IC50) runs as follows: (AlphaScreen, mean of runs) 17 µM; under setting [1], 17 µM; (FP, mean of runs) > 95 µM (inactive); under setting [2], greater than 95 µM; under setting [3], greater than 95 µM.

With `Cc1ccc(Cl)c(NC(=O)CSc2cccc[n+]2[O-])c1Cl`, the IC50 runs as follows: (AlphaScreen, mean of runs) > 100 µM (inactive); under setting [1], greater than 100 µM; (FP, mean of runs) > 95 µM (inactive); under setting [2], greater than 95 µM; under setting [3], greater than 95 µM.

On to `O=C(CSc1nc2ccccc2c(=O)n1-c1ccc(F)cc1F)Nc1ccc2c(c1)CCC2`, for which the IC50 (AlphaScreen, mean of runs) was > 100 µM (inactive); the IC50 under setting [1] is greater than 100 µM; the IC50 (FP, mean of runs) is > 95 µM (inactive); the concentration for half-maximal inhibition (IC50) under setting [2] was greater than 95 µM; the half-inhibitory concentration (IC50) under setting [3] is greater than 95 µM.

With `Cc1ccc(S(=O)(=O)N2[C@@H](c3ccc(Cl)cc3)C(C(=O)OC(C)(C)C)=CC[C@H]2c2ccc(Cl)c(Cl)c2)cc1`, the IC50 result (AlphaScreen, mean of runs) was “inactive”. The IC50 by setting is: under setting [1], 41 µM; (FP, mean of runs) > 95 µM (inactive); under setting [2], greater than 95 µM; under setting [3], greater than 95 µM.

The values above are taken from PubChem BioAssay AID651650 (Sanford-Burnham Center for Chemical Genomics, 2012).
